Data taken from patent US12187667B2, “Preparation systems and preparation methods for high-quality xylitol crystals” (ZHEJIANG HUAKANG PHARMACEUTICAL CO., LTD., priority 2022, dated 2025).

Key:
[1] = pH of xylitol crystal prepared from xylitol solutions with different compositions; format: physicochemical; details: crystal prepared from xylitol solution of the stated composition
From the text: In the production process of xylitol, there are two main factors can affect the pH of the product, one of which is ion exchange process. When xylitol solution passes through cation and anion exchange columns, H^+ and OH^− in resins are exchanged out, respectively. Due to the difference of exchange capacity between cation exchange column and anion exchange column, xylitol crystal products may have different pH. The other factor affecting the pH of xylitol product is the difference in composition of xylitol solution, which leads to a great difference in the pH of xylitol crystal.

[2] = cited from earlier work
[3] = pH of crude xylitol crystal after first crystallization; format: physicochemical; details: after first centrifuge and fluidization drying, before recrystallization
Experimental: Step 12, constant vacuum degree of the first crystallization kettle 7 was maintained at −0.095 MPa to further evaporate the xylitol concentrate solution. When temperature of the first crystallization kettle 7 dropped to 65° C., 0.001% xylitol crystal seeds (80-100 mesh) were added, and the system was maintained at constant temperature of 65° C. for evaporation and crystallization for 8 h. Finally, a crude xylitol crystal with purity of 99.5% and pH of 4.87 was obtained by centrifugal separation treatment of the first centrifuge 8 and fluidization drying treatment of the fluidization drying bed 9. At the same time, the primary centrifugal mother liquor C with purity of 90% obtained by the centrifugal separation treatment of the first centrifuge 8 was backset to the blending tank 1.
Step 22, constant vacuum degree of the first crystallization kettle 7 was maintained at −0.095 MPa to further evaporate the xylitol concentrate solution. When temperature of the first crystallization kettle 7 dropped to 64° C., 0.001% xylitol crystal seeds (100-120 mesh) were added, and the system was maintained at constant temperature of 64° C. for evaporation and crystallization for 12 h. Finally, crude xylitol crystal with purity of 99.6% and pH of 4.9 was obtained by centrifugal separation treatment of the first centrifuge 8 and fluidization drying treatment of the fluidization drying bed 9. At the same time, the primary centrifugal mother liquor C with purity of 89.5% obtained by the centrifugal separation treatment of the first centrifuge 8 was backset to the blending tank 1.
Step 32, constant vacuum degree of the first crystallization kettle 7 was maintained at −0.095 MPa to further evaporate the xylitol concentrate solution. When temperature of the first crystallization kettle 7 dropped to 66° C., 0.002% xylitol crystal seeds (60-80 mesh) were added, and the system was maintained at constant temperature of 66° C. for evaporation and crystallization for 10 h. […]

[4] = Acidity (pH) of xylitol crystal by the Chinese Pharmacopoeia method, 10 g crystal to 20 ml water; format: physicochemical; details: 10 g crystal to 20 ml pure water; for pH of xylitol after one month storage: crystal stored at room temperature for one month; for pH of xylitol after one week storage: crystal stored at room temperature for one week; for pH of xylitol: freshly prepared crystal
Experimental: The acidity of prepared xylitol crystal B was measured according to the method in the Chinese Pharmacopoeia. Xylitol solution was prepared with pure water in a proportion of 10 g crystal to 20 ml water. The pH of the xylitol solution in this Example was measured to be 6.06. After the obtained xylitol crystal B were stored at room temperature for one week, the pH of the xylitol solution was measured to be 6.03 using the same method. After the xylitol crystal was stored at room temperature for one month, the pH of the xylitol solution was measured to be 6.01 using the same method. The acidity of prepared xylitol crystal B was measured according to the method in the Chinese Pharmacopoeia. Xylitol solution was prepared with pure water in a proportion of 10 g crystal to 20 ml water. The pH of the xylitol solution in this Example was measured to be 6.12. After the obtained xylitol crystal B was stored at room temperature for one week, the pH of the xylitol solution was measured to be 6.08 using the same method. After the xylitol crystal was stored at room temperature for one month, the pH of the xylitol solution was measured to be 6.05 using the same method. The acidity of prepared xylitol crystal B was measured according to the method in the Chinese Pharmacopoeia. Xylitol solution was prepared with pure water in a proportion of 10 g crystal to 20 ml water. The pH of the xylitol solution in this Example was measured to be 6.09. After the obtained xylitol crystal B was stored at room temperature for one week, the pH of the xylitol solution was measured to be 6.07 using the same method. After the xylitol crystals were stored at room temperature for one month, the pH of the xylitol solution was measured to be 6.05 using the same method. The acidity of prepared xylitol crystal was measured according to the method in the Chinese Pharmacopoeia. Xylitol solution was prepared with pure water in a proportion of 10 g crystal to 20 ml water. The pH of the xylitol solution in this comparative example was measured to be 5.02. After the obtained xylitol crystals was stored at room temperature for one week, the pH of the xylitol solution was measured to be 4.85 using the same method. After the xylitol crystal was stored at room temperature for one month, the pH of the xylitol solution was measured to be 4.64 using the same method. The acidity of prepared xylitol crystal was measured according to the method in the Chinese Pharmacopoeia. Xylitol solution was prepared with pure water in a proportion of 10 g crystal to 20 ml water. The pH of the xylitol solution in this Contrast was measured to be 5.04. After the obtained xylitol crystal was stored at room temperature for one week, the pH of the xylitol solution was measured to be 4.81 using the same method. After the xylitol crystal was stored at room temperature for one month, the pH of the xylitol solution was measured to be 4.68 using the same method. The acidity of prepared xylitol crystal was measured according to the method in the Chinese Pharmacopoeia. Xylitol solution was prepared with pure water in a proportion of 10 g crystal to 20 ml water. The pH of the xylitol solution in this comparative example was measured to be 5.03. After the obtained xylitol crystal was stored at room temperature for one week, the pH of the xylitol solution was measured to be 4.90 using the same method. After the xylitol crystal was stored at room temperature for one month, the pH of the xylitol solution was measured to be 4.73 using the same method.

[5] = listed as Comparative Example 1
[6] = listed as Comparative Example 2
[7] = listed as Comparative Example 3

pH of xylitol after one month storage [4]	pH of xylitol after one week storage [4]	pH of xylitol [4]	Compound	other results
			OC[C@@H](O)[C@H](O)[C@@H](O)CO [100% xylitol, xylitol]	pH of xylitol crystal [1]: 6.02
			O=C[C@@H](O)[C@H](O)[C@H](O)CO [Arabinose]	Acidity coefficient (pKa) [2]: 12.46 ± 0.2
			OC[C@@H](O)[C@H](O)[C@@H](O)CO [Example 1 crude xylitol crystal, xylitol]	pH of crude xylitol crystal [3]: 4.87
6.01	6.03	6.06	OC[C@@H](O)[C@H](O)[C@@H](O)CO [Example 1, xylitol]	
			OC[C@@H](O)[C@H](O)[C@@H](O)CO [Example 2 crude xylitol crystal, xylitol]	pH of crude xylitol crystal [3]: 4.9
6.05	6.08	6.12	OC[C@@H](O)[C@H](O)[C@@H](O)CO [Example 2, xylitol]	
			OC[C@@H](O)[C@H](O)[C@@H](O)CO [Example 3 crude xylitol crystal, xylitol]	pH of crude xylitol crystal [3]: 4.99
6.05	6.07	6.09	OC[C@@H](O)[C@H](O)[C@@H](O)CO [Example 3, xylitol]	
			OC[C@@H](O)[C@H](O)[C@@H](O)CO [Xylitol]	Acidity coefficient (pKa) [2]: 13.24 ± 0.2
			O=C[C@H](O)[C@@H](O)[C@H](O)CO [Xylose]	Acidity coefficient (pKa) [2]: 12.14
4.64	4.85	5.02	OC[C@@H](O)[C@H](O)[C@@H](O)CO [compound 1, xylitol]	pH of xylitol after one month storage [4, 5]: 4.64; pH of xylitol after one week storage [4, 5]: 4.85; pH of xylitol [4, 5]: 5.02
4.68	4.81	5.04	OC[C@@H](O)[C@H](O)[C@@H](O)CO [compound 2, xylitol]	pH of xylitol after one month storage [4, 6]: 4.68; pH of xylitol after one week storage [4, 6]: 4.81; pH of xylitol [4, 6]: 5.04
4.73	4.90	5.03	OC[C@@H](O)[C@H](O)[C@@H](O)CO [compound 3, xylitol]	pH of xylitol after one month storage [4, 7]: 4.73; pH of xylitol after one week storage [4, 7]: 4.90; pH of xylitol [4, 7]: 5.03
			O=C[C@H](O)[C@@H](O)[C@@H](O)[C@H](O)CO [galactose]	Acidity coefficient (pKa) [2]: 12.35
